Several values for one entry are separate records, joined by “and”; a condition that tells them apart may be missing. Equal entries are not always repeated.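 All cell lines were grown in 96-well plates and treated with compound for 48 hours. Abbreviation: GI50, concentration required for 50% inhibition of growth. The concentration for full growth arrest is given as TGI.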
Legend:
Assay in all cases: DTP human tumour cell line panel, 48 h
HCT-116 colon = tested on: HCT-116 colon
HOP-62 NSCLC = tested on: HOP-62 NSCLC
KM12 colon = tested on: KM12 colon
MCF7 breast = tested on: MCF7 breast
SK-MEL-2 melanoma = tested on: SK-MEL-2 melanoma
SNB-75 CNS = tested on: SNB-75 CNS
TK-10 renal = tested on: TK-10 renal
U251 CNS = tested on: U251 CNS
UACC-62 melanoma = tested on: UACC-62 melanoma
PC-3 prostate = tested on: PC-3 prostate

Row | SMILES | TGI (HCT-116 colon) | GI50 (HOP-62 NSCLC) | TGI (HOP-62 NSCLC) | GI50 (KM12 colon) | GI50 (MCF7 breast) | TGI (MCF7 breast) | GI50 (SK-MEL-2 melanoma) | TGI (SK-MEL-2 melanoma) | GI50 (SNB-75 CNS) | TGI (SNB-75 CNS) | GI50 (TK-10 renal) | TGI (TK-10 renal) | TGI (U251 CNS) | GI50 (UACC-62 melanoma) | GI50 (HCT-116 colon) | TGI (KM12 colon) | GI50 (PC-3 prostate) | TGI (PC-3 prostate) | GI50 (U251 CNS) | TGI (UACC-62 melanoma)
1 | CCCCCCCCCC[C@@H](O)[C@@H]1CC[C@@H]([C@@H]2CC[C@@H]([C@@H](O)CCCCCCCCCC[C@H](O)CC3=CC(C)OC3=O)O2)O1 (stereo partly drawn) | 28.1 µM | 4.27 µM | 15.4 µM | > 100 µM | 3.52 µM | > 100 µM | 1.23 µM | 4.68 µM and 31.2 µM | 6.08 µM | 8.58 µM and 18 µM | 5.18 µM | 9.07 µM and 26 µM | > 46 µM | 7.27 µM | – | – | – | – | – | –
2 | Cc1c(Cl)c(=O)oc2cc(OC/C=C3\CCC(=O)O3)ccc12 | 28.3 µM | 23.6 µM | 66.1 µM | 26.1 µM | 13.4 µM | 37.8 µM | 15.7 µM | 40.5 µM | 17.9 µM | 37.5 µM | 13.8 µM | 32.6 µM | 33.3 µM | 16.8 µM | 13.9 µM | 75.3 µM | 14.2 µM | 38.8 µM | 16.8 µM | 33.9 µM
3 | Cc1ccc(C(=O)c2sc3nc4c(cc3c2N)CCCC4)c(C)c1 | > 100 µM | 0.465 µM | > 100 µM | 0.251 µM | 0.162 µM | > 100 µM | 0.429 µM | > 71.2 µM | 0.247 µM | 6.16 µM | 12.8 µM | > 100 µM | > 100 µM | 0.256 µM | 0.26 µM | > 100 µM | 0.433 µM | > 100 µM | 0.376 µM | > 100 µM
4 | CNCC/C=C1\c2cc3c(cc2-c2c1c1cc(OC)c(OC)cc1c(=O)n2C)OCO3 | – | 0.596 µM | 21.9 µM | < 0.0507 µM | 0.161 µM | > 36.9 µM | 9.68 µM | > 100 µM | 3.26 µM | 33.8 µM | 0.941 µM | 8.56 µM | 19.1 µM | 0.344 µM | 0.0679 µM | 0.504 µM | 0.534 µM | 10.3 µM | 0.309 µM | 2.3 µM
5 | O=C(O)c1cc2ccccc2c2c3c(ccc12)OCO3 | > 1000 µM | 176 µM | 697 µM | 219 µM | 227 µM | 895 µM | 166 µM | 333 µM | 77.8 µM | 265 µM | 231 µM | 616 µM | 478 µM | 116 µM | 262 µM | 702 µM | 166 µM | 559 µM | 134 µM | 279 µM
6 | NCCCCCNc1noc(Cc2c[nH]c3cc(Br)ccc23)n1 | 13.4 µM | 3.79 µM | 29.3 µM | 1.24 µM | 3.42 µM | 16.3 µM | 3.22 µM | 16.3 µM | – | – | 7.66 µM | 22.3 µM | 16.6 µM | 0.551 µM | 0.675 µM | 14.7 µM | 3.2 µM | 45.7 µM | 2.89 µM | 10.1 µM
7 | C=C1C(=O)OC2C1C(OC(=O)/C(C)=C/C)CC(O)(CCl)C1C(O)C=C(C)C21O (stereo not drawn) | 18.9 µM | – | > 67.2 µM | – | – | 16.7 µM | – | > 50.3 µM | – | > 59 µM | – | 27.6 µM | 65.1 µM | – | – | 49.8 µM | – | > 51.3 µM | – | 25.5 µM
8 | [N-]=[N+]=NCCCn1c2c(c3ccc([N+](=O)[O-])cc3c1=O)C(=O)c1cc3c(cc1-2)OCO3 | 1.18 µM | – | – | – | 0.158 µM | 7.68 µM | 2.58 µM | 22.3 µM | – | > 100 µM | 2.26 µM | 19.9 µM | 1.04 µM | < 0.0211 µM | < 0.01 µM | 5.01 µM | 2.24 µM | > 100 µM | < 0.0174 µM | 0.782 µM
9 | CC(=O)Oc1ccc2c(c1)[C@@]1(C)CCCC(C)(C)[C@@H]1CC2 | 32.8 µM | 15.9 µM | 30.2 µM | 19.2 µM | 34.6 µM | > 100 µM | 29.8 µM | > 100 µM | – | – | – | – | 35 µM | 17.6 µM | 18.4 µM | 45 µM | 20.1 µM | 39 µM | 19.9 µM | 32.8 µM
10 | Nc1c(C(=O)Nc2ccccn2)sc2nc3c(cc12)C(O)CCC3 (stereo not drawn) | > 50 µM | 2.9 µM | > 50 µM | 1.95 µM | 1.02 µM | > 50 µM | 1.34 µM | > 50 µM | 1.66 µM | > 50 µM | – | – | > 50 µM | 1.75 µM | 1.72 µM | > 50 µM | 1.34 µM | > 50 µM | 1.87 µM | > 50 µM
11 | NCCCOc1cc2ccccc2cc1C(=O)Nc1ccc(Cl)cc1OC(=O)c1cc2ccccc2cc1OCCCN | 0.313 µM | 0.208 µM | 0.515 µM | 0.19 µM | 0.173 µM | 0.332 µM | 0.312 µM | 1.2 µM | 0.119 µM | 0.859 µM | 0.545 µM | 1.07 µM | – | 1.44 µM | 0.175 µM | 0.394 µM | 0.575 µM | 1.58 µM | – | 2.85 µM
12 | C=C1c2ccccc2C(=O)c2c1c1c(C(=O)OC)c(OC(=O)OCc3ccc([N+](=O)[O-])cc3)ccc1n2Cc1ccccc1 | 20.4 µM | 13.3 µM | 29.3 µM | 12.7 µM | 13.4 µM | 43.2 µM | 23.9 µM | > 100 µM | – | – | 21.1 µM | > 100 µM | > 100 µM | 10.5 µM | 4.48 µM | 61.4 µM | 0.329 µM | 4.4 µM | 39.9 µM | 22.6 µM
13 | COc1cc(Cl)cc(-c2nn(-c3cccc(NC(=O)Nc4cccc(C(F)(F)F)c4)c3)cc2-c2ccncc2)c1 | 7.61 µM | 2.81 µM | 13.1 µM | 0.611 µM | 1.48 µM | 7.57 µM | 1.29 µM | 3.08 µM | 1.78 µM | 13.9 µM | – | – | 2.91 µM | 1.47 µM | 0.754 µM | 4.79 µM | 0.417 µM | 3.2 µM | 0.879 µM | 3.84 µM
14 | O=S(=O)(NCCNc1nccc(-c2c(-c3ccc(F)c(O)c3)nc3sccn23)n1)c1ccc(Cl)cc1 | > 50 µM | 6.17 µM | 21.5 µM | – | 1.52 µM | > 50 µM | 1.64 µM | 7.99 µM | 1.13 µM | 9.31 µM | 5.16 µM | 34.6 µM | 16 µM | 0.967 µM | 1.54 µM | – | 1.14 µM | > 50 µM | 3.81 µM | 13 µM
15 | CO[C@@H]1CCN(c2nccc(Nc3cc4c(C(C)C)ccc(N5CC(CS(C)(=O)=O)[C@H]5C)c4cn3)n2)C[C@@H]1F (stereo partly drawn) | > 100 µM | 4.46 µM | > 100 µM | 3.14 µM | 3.15 µM | 14.8 µM | 4.7 µM | 17.6 µM | 5.85 µM | > 100 µM | 0.843 µM | 19.9 µM | > 100 µM | – | 3.26 µM | > 100 µM | 3.52 µM | > 100 µM | 4.31 µM | –
16 | CCN(CC)c1c(-c2ccccc2)n[nH]c1C(=O)OC | – | 44.6 µM | > 100 µM | 17.8 µM | 23.1 µM | 54.4 µM | 42.5 µM | > 100 µM | 33.9 µM | > 100 µM | 22.5 µM | 59.2 µM | 66.4 µM | 15.5 µM | – | 47 µM | 31.2 µM | > 100 µM | 25.2 µM | 37.7 µM
17 | N#CC1=C(N)NC(=S)NC1c1ccc(-c2ccc(-c3nc4ccccc4o3)cc2)s1 (stereo not drawn) | 14.4 µM | 9.33 µM | 20.1 µM | 15.1 µM | 6.7 µM | 19.2 µM | 9.2 µM | 28.8 µM | – | – | 18.6 µM | > 50 µM | 14.4 µM | 9.2 µM | 7.71 µM | > 50 µM | 9.78 µM | > 50 µM | 7.73 µM | 21.3 µM
18 | CN1CCN(c2ccc(OC(F)(F)F)c(Nc3ncc4c(n3)-c3c(c(C(N)=O)nn3CCO)CC4)c2)CC1 | 18.7 µM and > 10 µM | 0.0723 µM and 0.0547 µM | 27.1 µM and > 10 µM | 0.0328 µM and 0.0354 µM | 0.0235 µM and 0.0357 µM | 15.7 µM and > 10 µM | 0.0543 µM | > 10 µM | 0.0582 µM and 0.145 µM | 11.7 µM and 1.49 µM | – | – | 21.7 µM and > 10 µM | 0.0454 µM and 0.123 µM | 0.0353 µM and 0.0452 µM | 35.4 µM and > 10 µM | 0.0663 µM and 0.0986 µM | > 82.4 µM | 0.052 µM and 0.0628 µM | 21.1 µM and > 4.66 µM
19 | Cc1cc(C(=O)/C=C/c2ccc[nH]2)ccc1-n1ccc(C(F)(F)F)n1 | > 100 µM | 34.8 µM | > 100 µM | 1.01 µM | 5.53 µM | > 100 µM | > 100 µM | > 100 µM | – | – | 27.5 µM | > 100 µM | > 100 µM | 21.4 µM | 8.63 µM | > 100 µM | 0.472 µM | 4.45 µM | 3.5 µM | > 100 µM
